Activity, TD50 and MED50 data for three compounds are collected here from ChEMBL document CHEMBL2417397, “Synthesis and biological properties of new N-Mannich bases derived from 3-methyl-3-phenyl- and 3,3-dimethyl-succinimides. Part V” (Eur J Med Chem, 2013).

In data set [1] the test system is Rattus norvegicus. The experiment in a line: Anticonvulsant activity in Sprague-Dawley albino rat assessed as protection against maximal electroshock-induced seizures at 30 mg/kg, po after 0.5 hrs. In kind it is functional.
Data set [2] concerns Vibrio harveyi. Put plainly: Induction of mutagenecity in Vibrio harveyi BB7XM. The following applies: in vivo. It counts as organism-based.
Data set [3] is described as follows: Neurotoxicity in ip dosed CF-1 albino mouse after 0.5 hrs by rotarod test. In kind it is toxicity, organism-based. The following applies: CF-1, mouse, in vivo.
In data set [4] the test system is Vibrio harveyi. Put plainly: Induction of mutagenecity in Vibrio harveyi BB7. In kind it is organism-based. The following applies: in vivo.
A short description of data set [5]: Neurotoxicity in ip dosed CF-1 albino mouse after 4 hrs by rotarod test. In kind it is toxicity, organism-based. As to conditions: CF-1, mouse, in vivo.
The test system of data set [6] is Rattus norvegicus. The experiment in a line: Anticonvulsant activity in Sprague-Dawley albino rat assessed as protection against maximal electroshock-induced seizures at 30 mg/kg, po after 2 hrs. It counts as functional.
Data set [7] has as its system Rattus norvegicus. Put plainly: Anticonvulsant activity in Sprague-Dawley albino rat assessed as protection against maximal electroshock-induced seizures at 30 mg/kg, po after 0.25 hrs. It counts as functional.
Data set [8] has as its system Mus musculus. The experiment in a line: Anticonvulsant activity in ip dosed CF-1 albino mouse assessed as protection against maximal electroshock-induced seizures after 4 hrs. It counts as functional.
Data set [9] has as its system Vibrio harveyi. The experiment in a line: Induction of mutagenecity in Vibrio harveyi BB7M. It counts as organism-based. The following applies: in vivo.
The subject of data set [10] is Mus musculus. Put plainly: Anticonvulsant activity in ip dosed CF-1 albino mouse assessed as protection against maximal electroshock-induced seizures after 0.5 hrs. In kind it is functional.
In data set [11] the test system is Rattus norvegicus. Put plainly: Neurotoxicity in Sprague-Dawley albino rat assessed as motor impairment at 30 mg/kg, po. It counts as toxicity, organism-based. Further details: dose 30 mg/kg, route oral. The following applies: in vivo.
Data set [12] relates to Vibrio harveyi. The experiment in a line: Induction of mutagenecity in Vibrio harveyi BB7X. It counts as organism-based. The following applies: in vivo.
Data set [13] deals with Rattus norvegicus. Put plainly: Anticonvulsant activity in Sprague-Dawley albino rat assessed as protection against maximal electroshock-induced seizures at 30 mg/kg, po after 4 hrs. In kind it is functional.
Data set [14] relates to Rattus norvegicus. Put plainly: Anticonvulsant activity in Sprague-Dawley albino rat assessed as protection against maximal electroshock-induced seizures at 30 mg/kg, po after 1 hr. In kind it is functional.
Data set [15] concerns Mus musculus. The experiment in a line: Neurotoxicity in CF-1 albino mouse at 300 mg/kg, ip after 4 hrs by rotarod test. As to conditions: in vivo. In kind it is toxicity, organism-based. Further details: dose 300 mg/kg, route intraperitoneal.
For data set [16], the system named is Mus musculus. Put plainly: Neurotoxicity in CF-1 albino mouse at 300 mg/kg, ip after 0.5 hrs by rotarod test. It counts as toxicity, organism-based. Further details: dose 300 mg/kg, route intraperitoneal. The following applies: in vivo.

Molecules are shown by their SMILES. The source made the active and inactive calls. No cut-off for these calls is given here.

Regarding `COc1ccccc1N1CCN(CN2C(=O)CC(C)(c3ccccc3)C2=O)CC1` (stereo unspecified), the result in the data set on Rattus norvegicus [1] and in the data set on Rattus norvegicus [7] was inactive. Also, the Activity entry in the data set on Vibrio harveyi [2] is recorded as “Toxic”; with Vibrio harveyi [4] it was “Non-toxic”; in the data set on Rattus norvegicus [6] it was 50%; in the data set with Vibrio harveyi [9], “Toxic”; in the data set with Rattus norvegicus [11], “Non-toxic”; in the data set with Vibrio harveyi [12] it was “Non-toxic”. Further, the Activity in the data set with Rattus norvegicus [13] and with Rattus norvegicus [14] was 50% in each case. In data set [3], the TD50 at 0.5 h stood at 300 mg/kg. The compound also showed a TD50 at 4 h in data set [5] of 300 mg/kg. In addition, the MED50 with Mus musculus [8] and in the data set with Mus musculus [10] was 100 mg/kg in each case.
In the case of `COc1cccc(N2CCN(CN3C(=O)CC(C)(c4ccccc4)C3=O)CC2)c1` (stereo unspecified), the Activity result in the data set on Vibrio harveyi [2] is on record as “Toxic”; in the data set on Vibrio harveyi [4], “Non-toxic”; in the data set on Mus musculus [15], “Non-toxic”; in the data set on Vibrio harveyi [9], “Toxic”; in the data set on Vibrio harveyi [12], “Non-toxic”; with Mus musculus [16] it was “Non-toxic”. Moreover, the MED50 in the data set on Mus musculus [8] and with Mus musculus [10] was 100 mg/kg each time.
On to `Cc1cccc(N2CCN(CN3C(=O)CC(C)(c4ccccc4)C3=O)CC2)c1` (stereo unspecified), for which the result in the data set on Rattus norvegicus [1] and in the data set on Rattus norvegicus [7] was inactive. Besides, the Activity result in the data set on Vibrio harveyi [2] is “Toxic”; in the data set on Vibrio harveyi [4], “Non-toxic”; in the data set with Rattus norvegicus [6] it was 50%; with Vibrio harveyi [9], “Toxic”; in the data set on Rattus norvegicus [11], “Non-toxic”; in the data set on Vibrio harveyi [12], “Non-toxic”. For the same compound, the Activity with Rattus norvegicus [13] and in the data set on Rattus norvegicus [14] was 50% throughout. This compound returned a TD50 at 0.5 h in data set [3] of 300 mg/kg. Moreover, the TD50 at 4 h in data set [5] was determined as 300 mg/kg. In addition, the MED50 in the data set on Mus musculus [8] and in the data set with Mus musculus [10] was 100 mg/kg each time.
